Assay results as given in US5965088A, “Method for providing rapid disinfection of contact lenses” (priority 1997, dated 1999).
Read-outs that look alike come from different tables or passages of the source.

Legend:
[1] = test system: Pseudomonas aeruginosa, Staphylococcus aureus, Serratia marcescens, Candida albicans, Fusarium solani; test: Stand-Alone Procedure for Disinfecting Products, primary performance criteria; format: cell-based, bacteria, yeast and mold; settings: for one hour stand-alone test for bacteria: 1 hr, bacteria only
Protocol: (§1) This Example illustrates the microbiocidal efficacy of solutions according to the present invention. The antimicrobial efficacy of each of various compositions for the chemical disinfection of contact lenses was evaluated. Microbial challenge inoculums were prepared using Pseudomonas aeruginosa (ATCC 9027), Staphylococcus aureus (ATCC 6538), Serratia marcescens (ATCC 13880), Candida albicans (ATCC 10231), and Fusarium solani (ATCC 36031). The test organisms were cultured on appropriate agar and the cultures were harvested using sterile DPBST (Dulbecco's Phosphate Buffered Saline plus 0.05% w/v polysorbate 80) or a suitable diluent and transferred to a suitable vessel. Spore suspensions were filtered through sterile glass wool to remove hyphal fragments. Serratia marcescens, as appropriate, was filtered (eg., through a 1.2 μ filter) to clarify the suspension. After harvesting, the suspension was centrifuged at no more than 5000× g for a maximum of 30 minutes at 20-25° C. The supernatant was poured off and resuspended in DPBST or other suitable diluent. The suspension was centrifuged a second time, and resuspended in DPBST or other suitable diluent. All challenge bacterial and fungal cell suspensions were adjusted with DPBST or other suitable diluent to 1×10^7 -10^8 cfu/mL. The appropriate cell concentration may be estimated by measuring the turbidity of the suspension, for example using a spectrophotometer at a preselected wavelength, for example 490 nm. One tube was prepared containing a minimum of 10 mL of test solution per challenge organism. Each tube of the solution to be tested was inoculated with a suspension of the test organism sufficient to provide a final count of 1.0×10^5 -10^6 cfu/mL, the volume of the inoculum not exceeding 1% of the sample volume. Dispersion of the inoculum was ensured by vortexing the sample for at least 15 seconds. The inoculated product was stored at 10-25° C. Aliquots in the amount of 1.0 mL were taken of the inoculated product for determination of viable counts after certain time periods of disinfection. The time points for the bacteria were 25, 50, 75, and 100% of the minimum disinfection time. Yeast and mold were tested at an additional timepoint of at least 400% of the minimum disinfection time. The suspension was mixed well by vortexing vigorously for at least 5 second. The 1.0 mL aliquots removed at the specified time intervals were subjected to a suitable series of decimal dilutions in validated neutralizing media. The suspensions were mixed vigorously and incubated for a suitable period of time to allow for neutralization of the microbial agent. The viable count of organisms was determined in appropriate dilutions by preparation of triplicate plates of trypticase soy (TSA) agar for bacteria and Sabouraud dextrose agar (SDA) for mold and yeast. The bacterial recovery plates were incubated at 30-35° C. for 2-4 days. The yeast was incubated at 20-30° C. for 2-4 days and mold recovery plates at 20-25° C. for 3-7 days. The average number of colony forming units was determined on countable plates. Countable plates refer to 30-300 cfu/plates for bacteria and yeast, and 8 to 80 cfu/plate for mold except when colonies are observed only for the 10^0 or 10^-1 dilution plates. The microbial reduction was then calculated at the specified time points. […] Following inoculation in a validated neutralizing broth and incubation for an appropriate period of time, the inoculum control must be between 1.0×10^5 -1.0×10^6 cfu/mL
(§2) The solutions were evaluated based on the performance requirement referred to as the "Stand-Alone Procedure for Disinfecting Products" (hereafter the "stand-alone test") and is based on the Disinfection Efficacy Testing for contact lens care products under the Draft Premarket Notification (510(k)) Guidance Document For Contact Lens Care Products dated Apr. 1, 1996, prepared by the U.S. Food and Drug Administration, Division of Ophthalmic Devices. […]

[2] = test system: Candida albicans (ATCC 10231); test: Antimicrobial efficacy (stand-alone log reduction), C. albicans; format: cell-based; settings: for log reduction at 4 ppm / log reduction at 4 µg/mL: Candida albicans; for log reduction at 4 µg/mL: 4.0 ppm alexidine in ReNu MPS; for Log Reduction C. albicans: PAPB 0.0
Protocol: as §1, §2

CCCCC(CC)CNC(=N)NC(=N)NCCCCCCNC(=N)NC(=N)NCC(CC)CCCC.Cl.Cl (centres unmarked) [Alexidine.2HCl, 1,1 '-hexamethylenebis(5-(2-ethylhexyl)-biguanide) dihydrochloride]
one hour stand-alone test for bacteria ([1]; 1.0 ppm): will not pass the one hour stand-alone test for bacteria | one hour stand-alone test for bacteria ([1]; 2.0 ppm): passes the one hour stand-alone test for bacteria | one hour stand-alone test ([1]; 4.0 ppm alexidine in ReNu MPS): passed the one hour stand-alone test | stand-alone test ([1]; 4.0 ppm, Example 6, 30, 45, 60 min, no rub or rinse): able to pass a stand-alone test (with no rub or rinse) at the 30 minute time point, 45 time point and the 60 minute time point | stand-alone test ([1]; 4.0 ppm, Example 7, 30, 45, 60 min): passed the stand alone test at 30 minutes, 45 minutes, and 60 minutes | stand-alone test ([1]; 4.0 ppm, Example 7, 15 min, with respect to Serratia marcescens and Candida albicans): only just passed the 15 minute stand-alone test | stand-alone test ([1]; 4.0 ppm, Example 8, 30, 45, 60 min, without rubbing): passed the stand-alone test (without rubbing) at 30 minutes, 45 minutes, and 60 minutes | stand-alone test ([1]; 4.0 ppm, Example 8, 15 min, without rubbing): did not pass the test at 15 minutes | time required to pass a stand-alone procedure without rubbing ([1]; 4.0 ppm, Tables 3, 4 and 5): at least 30 minutes | Log Reduction ([2]; 4.0 ppm, Ex. 8, different batch aged 19 months at 25 °C, 15 min, dihydrochloride): < 1 log | log reduction at 4 ppm ([2]; ATCC10231, 2.5 min, 4.0 ppm, aged 18 months, Exp. 1, 2.5 min, read-out: Log Reduction): 0 | log reduction at 4 ppm ([2]; ATCC10231, 2.5 min, 4.0 ppm, aged 18 months, Exp. 2, 2.5 min, read-out: Log Reduction): 0.1 | log reduction at 4 ppm ([2]; ATCC10231, 2.5 min, 4.0 ppm, aged 18 months, Exp. 3, 2.5 min, read-out: Log Reduction): 0 | log reduction at 4 ppm ([2]; ATCC10231, 5 min, 4.0 ppm, aged 18 months, Exp. 1, 5.0 min, read-out: Log Reduction): 0 | log reduction at 4 ppm ([2]; ATCC10231, 5 min, 4.0 ppm, aged 18 months, Exp. 2, 5.0 min, read-out: Log Reduction): 0.1 | log reduction at 4 ppm ([2]; ATCC10231, 5 min, 4.0 ppm, aged 18 months, Exp. 3, 5.0 min, read-out: Log Reduction): 0 | log reduction at 4 ppm ([2]; ATCC10231, 0.125 h, 4.0 ppm, aged 18 months, Exp. 1, 7.5 min, read-out: Log Reduction): 0.6 | log reduction at 4 ppm ([2]; ATCC10231, 0.125 h, 4.0 ppm, aged 18 months, Exp. 2, 7.5 min, read-out: Log Reduction): 0.5 | log reduction at 4 ppm ([2]; ATCC10231, 0.125 h, 4.0 ppm, aged 18 months, Exp. 3, 7.5 min, read-out: Log Reduction): 0.4 | log reduction at 4 ppm ([2]; ATCC10231, 10 min, 4.0 ppm, aged 18 months, Exp. 1, 10.0 min, read-out: Log Reduction): 0.7 | log reduction at 4 ppm ([2]; ATCC10231, 10 min, 4.0 ppm, aged 18 months, Exp. 2, 10.0 min, read-out: Log Reduction): 0.6 | log reduction at 4 ppm ([2]; ATCC10231, 10 min, 4.0 ppm, aged 18 months, Exp. 3, 10.0 min, read-out: Log Reduction): 0.4 | log reduction at 4 ppm ([2]; ATCC10231, 0.25 h, 4.0 ppm, Ex. 6, aged 19 months at 25 °C, 15 min): 1.9 | log reduction at 4 ppm ([2]; ATCC10231, 0.25 h, 4.0 ppm, Ex. 7, different lot aged 18 months, 15 min, read-out: Log Reduction): 1 | log reduction at 4 ppm ([2]; ATCC10231, 0.25 h, 4.0 ppm, Ex. 8, different batch aged 19 months at 25 °C, 15 min, read-out: Log Reduction): 0.9 | log reduction at 4 ppm ([2]; ATCC10231, 0.5 h, 4.0 ppm, Ex. 6, aged 19 months at 25 °C, 30 min, read-out: Log Reduction): 2.5 | log reduction at 4 ppm ([2]; ATCC10231, 0.5 h, 4.0 ppm, Ex. 7, different lot aged 18 months, 30 min, read-out: Log Reduction): 1.7 | log reduction at 4 ppm ([2]; ATCC10231, 0.5 h, 4.0 ppm, Ex. 8, different batch aged 19 months at 25 °C, 30 min, read-out: Log Reduction): 1.7 | log reduction at 4 ppm ([2]; ATCC10231, 40 min, 4.0 ppm, aged 18 months, Exp. 1, 40.0 min, read-out: Log Reduction): 2.1 | log reduction at 4 ppm ([2]; ATCC10231, 40 min, 4.0 ppm, aged 18 months, Exp. 2, 40.0 min, read-out: Log Reduction): 1 | log reduction at 4 ppm ([2]; ATCC10231, 40 min, 4.0 ppm, aged 18 months, Exp. 3, 40.0 min, read-out: Log Reduction): 1 | log reduction at 4 ppm ([2]; ATCC10231, 0.75 h, 4.0 ppm, Ex. 6, aged 19 months at 25 °C, 45 min): 2.7 | log reduction at 4 ppm ([2]; ATCC10231, 0.75 h, 4.0 ppm, Ex. 7, different lot aged 18 months, 45 min, read-out: Log Reduction): 1.9 | log reduction at 4 ppm ([2]; ATCC10231, 0.75 h, 4.0 ppm, Ex. 8, different batch aged 19 months at 25 °C, 45 min): 1.8 | log reduction at 4 µg/mL ([2]; ATCC10231, 1 h, 1 hr): 2.9 | log reduction at 4 ppm ([2]; ATCC10231, 1 h, 4.0 ppm, Ex. 6, aged 19 months at 25 °C, 60 min, read-out: Log Reduction): 2.8 | log reduction at 4 ppm ([2]; ATCC10231, 1 h, 4.0 ppm, Ex. 7, different lot aged 18 months, 60 min, read-out: Log Reduction): 2.1 | log reduction at 4 ppm ([2]; ATCC10231, 1 h, 4.0 ppm, Ex. 8, different batch aged 19 months at 25 °C, 60 min, read-out: Log Reduction): 1.9 | log reduction at 4 µg/mL ([2]; ATCC10231, 2 h, 2 hr): 4.3 | log reduction at 4 µg/mL ([2]; ATCC10231, 3 h, 3 hr): > 4.7 | log reduction at 4 µg/mL ([2]; ATCC10231, 4 h, 4 hr): 3.9 | log reduction at 4 ppm ([2]; ATCC10231, 4 h, 4.0 ppm, Ex. 6, aged 19 months at 25 °C, 4 h, read-out: Log Reduction): 3.4 | log reduction at 4 ppm ([2]; ATCC10231, 4 h, 4.0 ppm, Ex. 7, different lot aged 18 months, 4 hrs): 3.1 | log reduction at 4 ppm ([2]; ATCC10231, 4 h, 4.0 ppm, Ex. 8, different batch aged 19 months at 25 °C, 4 hrs, read-out: Log Reduction): 2.6 | log reduction at 4 µg/mL ([2]; ATCC10231, 24 h, 24 hr): 4.6 | Log Reduction C. albicans ([2]; alexidine 0.5 ppm, 5 min): 0.3 log | Log Reduction C. albicans ([2]; alexidine 0.5 ppm, 15 min): 1.0 log | Log Reduction C. albicans ([2]; alexidine 0.5 ppm, 30 min): -0.2 log | Log Reduction C. albicans ([2]; alexidine 0.5 ppm, 60 min): -0.1 log | Log Reduction C. albicans ([2]; alexidine 2.6 ppm, 5 min): 0.4 log | Log Reduction C. albicans ([2]; alexidine 2.6 ppm, 15 min): 0.5 log | Log Reduction C. albicans ([2]; alexidine 2.6 ppm, 30 min): 0.5 log | Log Reduction C. albicans ([2]; alexidine 2.6 ppm, 60 min): 1.4 log
